Assay results as given in patent publication US20240269095A1, “Rapid Onset Therapeutic Ketosis Enabled by D-BetaHydroxyButyric Acid Systems, Compounds and Methods for Stroke medication co-administration” (American Ketone Therapeutics LLC, priority 2022, published 2024).

How the values were obtained:
[1] = Blood ketone level by Abbott blood ketone meter / test strip after oral free D-BHB; type: in vivo, human
Source text: FIG. 9 is a graphical illustration of D-BHB exogenous ketone blood levels. The above Abbot blood ketone meter evidenced by Abbott blood test strip depicts the rapid rise in blood ketone levels from 0.1 mmol/L (absence of ketosis) to 2.7 mmol/L (ketosis) after oral bolus administration of 15 grams of bioidentical free D-BetaHydroxyButyric Acid. The ketone levels depicted are attained in the absence of a salt as well as without ester bonds. It is the free acid D-BHB exogenously administered which is bio-identical to the endogenous D-BHB free acid generated by the human body. The bioidentical ketone body D-BHB is first and foremost an energy source, which is directly and preferentially metabolized by the brain. D-BHB is also active as a signaling mechanism and neuro-inflammation reduction agent, resulting in broad and beneficial brain bioenergy related benefits.
FIG. 10 is a graphical illustration of D-BHB exogenous ketone blood levels. FIG. 10 details rapid ketosis within 45 minutes confirmed by Abbott blood test strip after 10 g D-BHB with palatability agent administered by oral drink. Blood ketone levels document rise from 0.2 mmol/L to 1.8 mmol/L and 0.6 mmol/L to 1.9 mmol/L in a variety of test subjects. FIG. 10 reinforces the fact that supplementation by utilizing free D only BetaHydroxyButyric Acid without ketone salt or ketone ester is a reliable, reproducible method and system for rapid ketone level increase for stroke recovery and maintenance. While amounts of free D only BetaHydroxyButyric Acid taken for stroke effects may vary, it is an anticipated preferred embodiment that levels between 5 and 30 grams of D only BetaHydroxyButyric Acid are taken as needed for optimum recovery. Alternate embodiments may include lower or higher amounts, however, experimental evidence has confirmed optimal administration in this range for a wide variety of other applications.

[2] = Continuous glucose monitoring (Abbot Libre CGM) with carbohydrate challenge; type: in vivo, human; conditions: 10 g given 45 minutes before 50 g carbohydrate ingestion; compared with unsupplemented ingestion
Source text: FIG. 11 is a graphical illustration of continuous monitoring of body glucose levels. FIG. 11 depicts continuous glucose monitoring levels with carbohydrate challenge documented by Abbot Libre Continuous Glucose Monitoring (CGM) device. In this illustrative embodiment, glucose levels from a 50 g carbohydrate ingestion are depicted unaided by free D-BetaHydroxyButyric Acid on the left and repeated the following day with two 50 g carbohydrate ingestions accompanied by 10 g free D-BetaHydroxyButyric Acid administered 45 minutes before the carbohydrate insult. […] As free D-BetaHydroxyButyric Acid can lower glucose while rapidly increasing ketone levels, it is believed that obtaining high ketones while lowering glucose will yield additional stroke recovery benefits for high glucose sensitive individuals suffering from stroke.

[3] = Continuous Ketone Meter (CKM) monitoring of body ketone levels and deep sleep; type: in vivo, human; conditions: 5 grams consumed 45 minutes prior to bedtime
Source text: FIG. 12 is a graphical illustration of continuous monitoring of body ketone levels resulting in improved deep sleep time due to enhanced D-BHB levels according to the claimed invention. It is noteworthy that consumption of even small amounts of free D-BetaHydroxy Butyric Acid can give rise to therapeutic ketosis levels as measured by Continuous Ketone Meter (CKM). […] While free D-BetaHydroxyButyric Acid is not a sedative, even small amounts can greatly improve deep sleep quantity and quality. It is an intended and foreseeable embodiment application to increase deep sleep with free D-BetaHydroxyButyric Acid with the aim of improving stroke recovery and enhanced brain resiliency.

[4] = Stated properties of free D-BHB (Table 1); design: species or system human
[5] = compared with ketone salts, literature table; cited from earlier work

| SMILES | time to ketosis ([1]; 10 g D-BHB with palatability agent by oral drink) | blood ketone level after administration ([1]; 10 g with palatability agent by oral drink, test subject rising from 0.2 mmol/L) | blood ketone level after administration ([1]; 10 g with palatability agent by oral drink, test subject rising from 0.6 mmol/L) | blood ketone level after administration ([1]; oral bolus of 15 grams, rise from 0.1 mmol/L (absence of ketosis)) | glucose spike after carbohydrate ingestion [2] | deep sleep quantity [3] | increase in ketone level (CKM) [3] | Induces Ketoacidosis [4] | Metabolism [4] | ketone level response [5] |
| --- | --- | --- | --- | --- | --- | --- | --- | --- | --- | --- |
| C[C@@H](O)CC(=O)O [free D-BetaHydroxyButyric Acid, D-β-HydroxyButyric Acid] | ≤ 45 min | 1.8 mmol/L | 1.9 mmol/L | 2.7 mmol/L | rapid glucose spike depicted in the unsupplemented ingestion is not found | enhance the quantity of deep sleep obtained | 1.5 mmol/L | Induces Ketoacidosis: No | Metabolism: Rapid, minutes | – |
| C[C@@H](O)CCOC(=O)C[C@@H](C)O [ketone ester, (R)-3-hydroxybutyl (R)-3-hydroxybutyrate] | – | – | – | – | – | – | – | – | – | higher ketone level response |
